The values that follow come from ChEMBL document CHEMBL1201862, “PubChem BioAssay data set” (2004).

Some test systems named below: NCI-H23; SN12C; TK-10; OVCAR-4; LXFL 529; EKVX; HCT-116; HL-60; SK-MEL-5; RPMI-8226; ACHN; UO-31; HOP-92; SK-MEL-2; OVCAR-8; HCT-15; MOLT-4.
Common to all, as to assay: inhibition of tumour cell growth, NCI panel, 48 h

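In this assay, cells in 96-well plates receive the compound at five concentrations for 48 hours. Endpoints are linearly interpolated between the surrounding concentrations. The concentration for 50% growth inhibition is given as GI50.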 Activity calls are given as the source filed them. Rule as the data show it: active = GI50 up to about 1.1 µM and inactive = higher.

Take `CCCCN(CCCC)/C(=N\C#N)NCc1ccccc1`: the GI50 is 27.1 µM (inactive) in the experiment with NCI-H23; 18.8 µM (inactive) in the experiment with SN12C; 25.1 µM (inactive) with TK-10; 28.6 µM (inactive) with OVCAR-4; 15.4 µM (inactive) with LXFL 529; 19.6 µM (inactive) in the experiment on EKVX. Further, the GI50 is 27.1 µM (inactive) with HCT-116; 10.5 µM (inactive) with HL-60; 21.9 µM (inactive) in the experiment on SK-MEL-5; 13.7 µM (inactive) in the experiment with RPMI-8226; 26.2 µM (inactive) in the experiment on ACHN; 11.2 µM (inactive) with UO-31. The GI50 in the experiment with HOP-92 is 14.4 µM (inactive); in the experiment on SK-MEL-2 it was 21.7 µM (inactive); with OVCAR-8, 26.1 µM (inactive); in the experiment on HCT-15, 15 µM.
Take `COc1cc(/C=C2\[C@H]3c4c(c(OC)c(C)c(OC)c4OC)C[C@@H](C(=O)N2Cc2ccccc2)N3C(=O)OCC(C)C)c(OC)c(C)c1OC`: the GI50 in the experiment with NCI-H23, in the experiment on SN12C, in the experiment with TK-10, in the experiment on OVCAR-4, in the experiment on LXFL 529 and in the experiment on EKVX was > 100 µM (inactive) in each case. In addition, the GI50 was 12.1 µM (inactive) with HCT-116; 7.46 µM (inactive) in the experiment on HL-60; 26.2 µM (inactive) in the experiment on SK-MEL-5; 13.6 µM (inactive) in the experiment on RPMI-8226; > 64.3 µM (inactive) in the experiment with ACHN; > 100 µM (inactive) in the experiment on UO-31. In addition, the GI50 with MOLT-4 was 12.3 µM (inactive); in the experiment with HOP-92 it was 2.99 µM (inactive); with SK-MEL-2 it was > 100 µM (inactive); with OVCAR-8, > 100 µM (inactive); in the experiment with HCT-15 it was above 100 µM.
As to `COc1ccc2c(c1)C1(C=N2)CCN(C(C)=O)CC1`, the GI50 in the experiment on NCI-H23, in the experiment with TK-10, in the experiment with OVCAR-4, in the experiment on LXFL 529, in the experiment on EKVX and with HCT-116 was > 100 µM (inactive) in each case. Also, the GI50 in the experiment with HL-60 was > 100 µM (inactive); with SK-MEL-5 it was > 100 µM (inactive); in the experiment on RPMI-8226, 50.4 µM (inactive); in the experiment with ACHN, > 100 µM (inactive); in the experiment with MOLT-4 it was 82 µM (inactive); with HOP-92 it was 87.9 µM (inactive). Further, the GI50 is > 100 µM (inactive) with SK-MEL-2, > 100 µM (inactive) with OVCAR-8 and above 100 µM in the experiment on HCT-15.
As to `OCCCCOC(c1ccccc1)(c1ccccc1)c1ccccc1`, the GI50 with NCI-H23, in the experiment with SN12C, in the experiment with TK-10, in the experiment with OVCAR-4, with LXFL 529 and in the experiment with HCT-116 was > 100 µM (inactive) in each case. Besides, the GI50 in the experiment with HL-60, in the experiment with SK-MEL-5, in the experiment on RPMI-8226, with ACHN, with UO-31 and with MOLT-4 was > 100 µM (inactive) in each case. For the same compound, the GI50 in the experiment on HOP-92 is > 100 µM (inactive); in the experiment with OVCAR-8, > 100 µM (inactive); in the experiment on HCT-15, above 100 µM.
In the case of `O=C(CC1(O)C(=O)Nc2c(Cl)cc(Cl)cc21)c1ccccc1` (centres undefined), the GI50 was 77.6 µM (inactive) in the experiment with NCI-H23; > 100 µM (inactive) with SN12C; > 100 µM (inactive) in the experiment on TK-10; 39.2 µM (inactive) in the experiment with OVCAR-4; 50.1 µM (inactive) with LXFL 529; 82.4 µM (inactive) in the experiment with EKVX. The GI50 in the experiment on HCT-116 was 50.5 µM (inactive); with HL-60 it was 37 µM (inactive); in the experiment with SK-MEL-5 it was 60.3 µM (inactive); with RPMI-8226 it was 31.3 µM (inactive); in the experiment with ACHN it was > 100 µM (inactive); in the experiment with UO-31, 52.1 µM (inactive). The GI50 in the experiment with MOLT-4 is 33.6 µM (inactive); in the experiment on HOP-92 it was > 100 µM (inactive); with SK-MEL-2, > 100 µM (inactive); in the experiment with OVCAR-8, 71.8 µM (inactive); with HCT-15, 80.9 µM.
As to `CC(=O)Nc1ccccc1-c1cnc2ccccc2n1`, the GI50 with NCI-H23, in the experiment on SN12C, with TK-10, in the experiment on OVCAR-4, in the experiment on LXFL 529 and in the experiment with EKVX was > 100 µM (inactive) each time. Further, the GI50 in the experiment on HCT-116, with HL-60, in the experiment with SK-MEL-5, in the experiment with RPMI-8226, in the experiment with ACHN and with MOLT-4 was > 100 µM (inactive) throughout. The GI50 was > 100 µM (inactive) in the experiment with HOP-92, > 100 µM (inactive) in the experiment on OVCAR-8 and above 100 µM with HCT-15.
As to `Cc1nc(-c2nc(C)c(C(=O)NN(C)C)s2)sc1C(=O)NN(C)C`, the GI50 in the experiment on NCI-H23 is > 100 µM (inactive); in the experiment on SN12C it was > 100 µM (inactive); with TK-10, > 100 µM (inactive); with OVCAR-4 it was 53 µM (inactive); in the experiment with LXFL 529 it was > 100 µM (inactive); with EKVX it was > 100 µM (inactive). Further, the GI50 with HL-60 is 43 µM (inactive); in the experiment with SK-MEL-5, > 100 µM (inactive); in the experiment on RPMI-8226, 28.8 µM (inactive); in the experiment with ACHN, > 100 µM (inactive); in the experiment on UO-31, > 100 µM (inactive); in the experiment with MOLT-4, 44.1 µM (inactive). In addition, the GI50 in the experiment on HOP-92 was > 100 µM (inactive); in the experiment on SK-MEL-2, > 100 µM (inactive); in the experiment on OVCAR-8, > 100 µM (inactive); in the experiment with HCT-15, 67.9 µM.
On to `O=c1/c(=C/c2ccccc2F)sc2nc3ccccc3n12`, for which the GI50 with NCI-H23 was > 100 µM (inactive); with SN12C, > 100 µM (inactive); with TK-10 it was > 100 µM (inactive); in the experiment on OVCAR-4, > 100 µM (inactive); with LXFL 529 it was 88.3 µM (inactive); in the experiment on EKVX it was > 100 µM (inactive). The GI50 in the experiment with HCT-116, in the experiment on HL-60, with SK-MEL-5, in the experiment on RPMI-8226, in the experiment on ACHN and with UO-31 was > 100 µM (inactive) in each case. Further, the GI50 in the experiment with MOLT-4 is > 100 µM (inactive); in the experiment on HOP-92, > 100 µM (inactive); in the experiment on SK-MEL-2, > 100 µM (inactive); in the experiment with OVCAR-8 it was > 100 µM (inactive); in the experiment with HCT-15, above 100 µM.
On to `C=CCNC(=S)N1CC(C)C(=O)Nc2cc(Cl)ccc21` (centres undefined), for which the GI50 in the experiment with NCI-H23, in the experiment with SN12C, with TK-10, in the experiment on OVCAR-4, in the experiment with LXFL 529 and in the experiment on EKVX was > 100 µM (inactive) in each case. Also, the GI50 with HCT-116, in the experiment on HL-60, in the experiment with SK-MEL-5, in the experiment with RPMI-8226, in the experiment on ACHN and with UO-31 was > 100 µM (inactive) throughout. Moreover, the GI50 with MOLT-4 is > 100 µM (inactive); in the experiment with HOP-92 it was > 100 µM (inactive); in the experiment on SK-MEL-2 it was > 100 µM (inactive); with OVCAR-8, > 100 µM (inactive); in the experiment on HCT-15, above 100 µM.
Consider `Cc1c(C(=O)CSc2nc3ccccc3[nH]2)c(=O)n(-c2ccccc2)n1C`, for which the GI50 with NCI-H23, in the experiment on SN12C, in the experiment with TK-10, with OVCAR-4, in the experiment on LXFL 529 and in the experiment with HCT-116 was > 100 µM (inactive) throughout. Moreover, the GI50 with HL-60, with SK-MEL-5, with RPMI-8226, with ACHN, in the experiment on UO-31 and with MOLT-4 was > 100 µM (inactive) each time. The GI50 in the experiment on HOP-92 was > 100 µM (inactive); with SK-MEL-2, > 100 µM (inactive); in the experiment with OVCAR-8, > 100 µM (inactive); in the experiment with HCT-15, above 100 µM.
For `c1ccc2[nH]c(-c3nc4ccccc4o3)nc2c1`, the GI50 with NCI-H23 is > 100 µM (inactive); in the experiment on SN12C, > 100 µM (inactive); in the experiment with TK-10, 45.1 µM (inactive); with OVCAR-4, > 100 µM (inactive); with LXFL 529, > 100 µM (inactive); in the experiment on EKVX, 8.65 µM (inactive). In addition, the GI50 with HCT-116 was > 100 µM (inactive); in the experiment with HL-60, 17.6 µM (inactive); in the experiment on SK-MEL-5 it was 62.8 µM (inactive); in the experiment with RPMI-8226, 81.3 µM (inactive); in the experiment on ACHN it was > 100 µM (inactive); in the experiment on UO-31, > 100 µM (inactive). Moreover, the GI50 was > 100 µM (inactive) with MOLT-4; > 100 µM (inactive) in the experiment with HOP-92; > 100 µM (inactive) in the experiment with SK-MEL-2; > 100 µM (inactive) with OVCAR-8; above 100 µM in the experiment with HCT-15.
`Cc1c(/C=N/NC(=O)c2ccccc2)c(=O)n(-c2ccccc2)n1C`: the GI50 with NCI-H23, in the experiment with SN12C, with TK-10, in the experiment on OVCAR-4, in the experiment with LXFL 529 and in the experiment with EKVX was > 100 µM (inactive) each time. The GI50 in the experiment on HCT-116, with HL-60, with RPMI-8226, in the experiment on ACHN, in the experiment on UO-31 and in the experiment with MOLT-4 was > 100 µM (inactive) throughout. Further, the GI50 with HOP-92 was > 100 µM (inactive); in the experiment with SK-MEL-2, > 100 µM (inactive); with OVCAR-8 it was > 100 µM (inactive); in the experiment on HCT-15 it was above 100 µM.
